Measurements taken from patent US11155525B2 (Sanford Burnham Prebys Medical Discovery Institute, priority 2015, dated 2021).

Molecular target: T1, human apelin receptor (Homo sapiens, UniProt P35414)
T1 construct: host or cells: CHO cells
T1 sequence (P35414 1-380): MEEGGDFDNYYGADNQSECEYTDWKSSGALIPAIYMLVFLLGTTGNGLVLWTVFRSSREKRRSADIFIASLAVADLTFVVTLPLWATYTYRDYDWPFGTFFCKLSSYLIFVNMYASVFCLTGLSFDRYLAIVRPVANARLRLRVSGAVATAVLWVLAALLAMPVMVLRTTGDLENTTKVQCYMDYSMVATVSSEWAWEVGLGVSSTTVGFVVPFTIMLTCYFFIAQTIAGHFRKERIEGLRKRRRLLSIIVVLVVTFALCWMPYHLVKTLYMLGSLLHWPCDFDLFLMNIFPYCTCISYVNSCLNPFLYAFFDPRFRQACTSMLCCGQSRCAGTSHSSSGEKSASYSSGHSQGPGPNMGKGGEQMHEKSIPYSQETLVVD
Assay: Measurement of apelin receptor agonist activity (cell-based assay determining the amount of intracellular cAMP)
Conditions: CHO cells stably expressing the human apelin receptor, Forskolin 10 μM, 30 minutes, 100% efficacy = [Pyr1]-apelin-13 0.300 μM, concentration giving 50% efficacy
Procedure: Measurement of Apelin Receptor Agonist Activity
The apelin receptor agonist activity of the compound represented by formula (I) or (II) of the present invention was measured by cell-based assay for determining the amount of intracellular cAMP.
CHO cells (DiscoveRx Corp.) stably expressing the human apelin receptor were inoculated to wells of a microtiter plate and cultured overnight at 37° C. under conditions of 5% CO2.
Each test compound and Forskolin were added to the wells at the same time. Specifically, the test compound dissolved in DMSO was diluted with a Forskolin-containing buffer [DMEM/F-12, HEPES, no phenol red (#11039, GIBCO)] to prepare a mixed solution containing the test compound at a final concentration of […] (common ratio: 3, serial dilution: 11), Forskolin at a final concentration of 10 μM, and DMSO at a final concentration of 0.3% v/v, which was then added to the wells (N═4).
After 30 minutes, the cells were lysed, and HitHunter cAMP XS+ Assay #90-0075L (DiscoveRx Corp.) was added to the cell lysate. The mixture was left overnight, and the resulting chemiluminescence signals were then detected using Analyst GT (Molecular Devices LLC.) to determine the amount of cAMP.
The amount of cAMP determined by the addition of a positive control [Pyr1]-apelin-13 (final concentration: 0.300 μM) and Forskolin (final concentration: 10 μM) at the same time was used as an index to define 100% efficacy. The amount of cAMP determined by the addition of Forskolin (final concentration: 10 μM) alone was used as an index to define 0% efficacy.
A dose response curve was prepared from the final concentration of the test compound and the determined amount of cAMP using Sigmaplot 12.0.

Row | SMILES | EC50 [nM]
1 | COc1cccc(OC)c1-n1c(SCC(=O)O)nnc1C1CCCC1 [Example 33, {[5-Cyclopentyl-4-(2,6-dimethoxyphenyl)-4H-1,2,4-triazol-3-yl]sulfanyl}acetic acid] | 2440
2 | COc1ccnc(OC)c1-n1c(SCC(=O)O)nnc1-c1ccc(C)o1 [Example 34, {[4-(2,4-Dimethoxypyridin-3-yl)-5-(5-methylfuran-2-yl)-4H-1,2,4-triazol-3-yl]sulfanyl}acetic acid] | 152
3 | COc1cccc(OC)c1-n1c(SC(C(=O)O)c2ccccc2)nnc1-c1ccc(C)o1 (centres unmarked) [Example 35, {[4-(2,6-Dimethoxyphenyl)-5-(5-methylfuran-2-yl)-4H-1,2,4-triazol-3-yl]sulfanyl}(phenyl)acetic acid] | 10
4 | COc1cccc(OC)c1-n1c(SC(C)(C)C(=O)O)nnc1-c1ccc(C)o1 [Example 36, 2-{[4-(2,6-Dimethoxyphenyl)-5-(5-methylfuran-2-yl)-4H-1,2,4-triazol-3-yl]sulfanyl}-2-methylpropanoic acid] | 108
5 | COC(=O)C(Sc1nnc(-c2ccc(C)o2)n1-c1c(OC)cccc1OC)c1cccc2ccccc12 (centres unmarked) [Example 37, Methyl {[4-(2,6-dimethoxyphenyl)-5-(5-methylfuran-2-yl)-4H-1,2,4-triazol-3-yl]sulfanyl}(naphthalen-1-yl)acetate] | 825
6 | COc1cccc(OC)c1-n1c(SC(C(=O)O)c2cccc3ccccc23)nnc1-c1ccc(C)o1 (centres unmarked) [Example 38, {[4-(2,6-Dimethoxyphenyl)-5-(5-methylfuran-2-yl)-4H-1,2,4-triazol-3-yl]sulfanyl}(naphthalen-1-yl)acetic acid] | 9
7 | COc1cccc(OC)c1-n1c(SC(Cc2ccccc2)C(=O)O)nnc1-c1ccc(C)o1 (centres unmarked) [Example 39, 2-{[4-(2,6-Dimethoxyphenyl)-5-(5-methylfuran-2-yl)-4H-1,2,4-triazol-3-yl]sulfanyl}-3-phenylpropanoic acid] | 11
8 | COc1cccc(OC)c1-n1c(SCc2ccccc2)nnc1-c1ccc(C)o1 [Example 40, 3-(Benzylsulfanyl)-4-(2,6-dimethoxyphenyl)-5-(5-methylfuran-2-yl)-4H-1,2,4-triazole] | 1110
9 | COc1cccc(OC)c1-n1c(SC(C)C(=O)O)nnc1-c1ccc(C)o1 (centres unmarked) [Example 41, 2-{[4-(2,6-Dimethoxyphenyl)-5-(5-methylfuran-2-yl)-4H-1,2,4-triazol-3-yl]sulfanyl}propanoic acid] | 45
10 | CCCC(Sc1nnc(-c2ccc(C)o2)n1-c1c(OC)cccc1OC)C(=O)O (centres unmarked) [Example 42, 2-{[4-(2,6-Dimethoxyphenyl)-5-(5-methylfuran-2-yl)-4H-1,2,4-triazol-3-yl]sulfanyl}pentanoic acid] | 12
11 | COc1cccc(OC)c1-n1c(SC(C(=O)O)C(C)C)nnc1-c1ccc(C)o1 (centres unmarked) [Example 43, 2-{[4-(2,6-Dimethoxyphenyl)-5-(5-methylfuran-2-yl)-4H-1,2,4-triazol-3-yl]sulfanyl}-3-methylbutanoic acid] | 39
12 | COc1cccc(OC)c1-n1c(Br)nnc1-c1ccc(C)o1 [Example 44, 3-Bromo-4-(2,6-dimethoxyphenyl)-5-(5-methylfuran-2-yl)-4H-1,2,4-triazole] | 1210
13 | COC(=O)c1cccc(-c2nnc(-c3ccc(C)o3)n2-c2c(OC)cccc2OC)c1 [Example 45, Methyl 3-[4-(2,6-dimethoxyphenyl)-5-(5-methylfuran-2-yl)-4H-1,2,4-triazol-3-yl]benzoate] | 1320
14 | COc1cccc(OC)c1-n1c(-c2cccc(C(=O)O)c2)nnc1-c1ccc(C)o1 [Example 46, 3-[4-(2,6-Dimethoxyphenyl)-5-(5-methylfuran-2-yl)-4H-1,2,4-triazol-3-yl]benzoic acid] | 96
15 | COC(=O)c1ccc(-c2nnc(-c3ccc(C)o3)n2-c2c(OC)cccc2OC)cc1 [Example 47, Methyl 4-[4-(2,6-dimethoxyphenyl)-5-(5-methylfuran-2-yl)-4H-1,2,4-triazol-3-yl]benzoate] | 419
16 | COc1cccc(OC)c1-n1c(-c2ccc(C(=O)O)cc2)nnc1-c1ccc(C)o1 [Example 48, 4-[4-(2,6-Dimethoxyphenyl)-5-(5-methylfuran-2-yl)-4H-1,2,4-triazol-3-yl]benzoic acid] | 22

Row | SMILES | EC50 [nM]
17 | COc1cccc(OC)c1-n1c(SCCCCC(=O)O)nnc1-c1ccc(C)o1 [Example 49, 5-{[4-(2,6-Dimethoxyphenyl)-5-(5-methylfuran-2-yl)-4H-1,2,4-triazol-3-yl]sulfanyl}pentanoic acid] | 393
18 | COc1cccc(OC)c1-n1c(SCCCCCC(=O)O)nnc1-c1ccc(C)o1 [Example 50, 6-{[4-(2,6-Dimethoxyphenyl)-5-(5-methylfuran-2-yl)-4H-1,2,4-triazol-3-yl]sulfanyl}hexanoic acid] | 1320
19 | CCOC(=O)C(=O)/C=C/c1nnc(-c2ccc(C)o2)n1-c1c(OC)cccc1OC [Example 51, Ethyl (3E)-4-[4-(2,6-dimethoxyphenyl)-5-(5-methylfuran-2-yl)-4H-1,2,4-triazol-3-yl]-2-oxobut-3-enoate] | 111
20 | COc1cccc(OC)c1-n1c(/C=C/c2cc(=O)n3cc(C)ccc3n2)nnc1-c1ccc(C)o1 [Example 52, 2-{(E)-2-[4-(2,6-Dimethoxyphenyl)-5-(5-methylfuran-2-yl)-4H-1,2,4-triazol-3-yl]ethenyl}-7-methyl-4H-pyrido[1,2-a]pyrimidin-4-one] | 217
21 | COc1cccc(OC)c1-n1c(/C=C/C#N)nnc1-c1ccc(C)o1 [Example 53, (2E)-3-[4-(2,6-Dimethoxyphenyl)-5-(5-methylfuran-2-yl)-4H-1,2,4-triazol-3-yl]prop-2-enenitrile] | 2650
22 | COc1cccc(OC)c1-n1c(/C=C/C(=O)N(C)OC)nnc1-c1ccc(C)o1 [Example 54, (2E)-3-[4-(2,6-Dimethoxyphenyl)-5-(5-methylfuran-2-yl)-4H-1,2,4-triazol-3-yl]-N-methoxy-N-methylprop-2-enamide] | 1200
23 | COC(=O)/C=C\c1nnc(-c2ccc(C)o2)n1-c1c(OC)cccc1OC [Example 55, Methyl (2Z)-3-[4-(2,6-dimethoxyphenyl)-5-(5-methylfuran-2-yl)-4H-1,2,4-triazol-3-yl]prop-2-enoate] | 1920
24 | COc1cccc(OC)c1-n1c(/C=C\C(=O)O)nnc1-c1ccc(C)o1 [Example 56, (2Z)-3-[4-(2,6-Dimethoxyphenyl)-5-(5-methylfuran-2-yl)-4H-1,2,4-triazol-3-yl]prop-2-enoic acid] | 48
25 | COc1cccc(OC)c1-n1c(-c2ccccc2)nnc1-c1ccc(C)o1 [Example 57, 4-(2,6-Dimethoxyphenyl)-3-(5-methylfuran-2-yl)-5-phenyl-4H-1,2,4-triazole] | 1210
26 | COC(=O)c1ccccc1-c1nnc(-c2ccc(C)o2)n1-c1c(OC)cccc1OC [Example 58, Methyl 2-[4-(2,6-dimethoxyphenyl)-5-(5-methyl-2-furyl)-4H-1,2,4-triazol-3-yl]benzoate] | 2800
27 | COc1cccc(OC)c1-n1c(-c2ccc(C)o2)nnc1-c1ccccc1C(=O)O [Example 59, 2-[4-(2,6-Dimethoxyphenyl)-5-(5-methylfuran-2-yl)-4H-1,2,4-triazol-3-yl]benzoic acid] | 349
28 | COc1cccc(OC)c1-n1c(SCC(=O)O)cnc1-c1ccc(C)o1 [Example 60, {[1-(2,6-Dimethoxyphenyl)-2-(5-methylfuran-2-yl)-1H-imidazol-5-yl]sulfanyl}acetic acid] | 1300
29 | COc1cccc(OC)c1-n1c(SCC(=O)O)nnc1-c1ccco1 [Example 61, {[4-(2,6-Dimethoxyphenyl)-5-(furan-2-yl)-4H-1,2,4-triazol-3-yl]sulfanyl}acetic acid] | 412
30 | COc1cccc(OC)c1-n1c(SCC(=O)O)nnc1-c1ccoc1 [Example 62, {[4-(2,6-Dimethoxyphenyl)-5-(furan-3-yl)-4H-1,2,4-triazol-3-yl]sulfanyl}acetic acid] | 808
31 | COc1cccc(OC)c1-n1c(SCC(=O)O)nnc1-c1cc(C)c(C)o1 [Example 63, {[4-(2,6-Dimethoxyphenyl)-5-(4,5-dimethylfuran-2-yl)-4H-1,2,4-triazol-3-yl]sulfanyl}acetic acid] | 716
32 | COc1cccc(OC)c1-n1c(/C=C/C(=O)O)nnc1-c1ccc(C)o1 [Example 64, Ammonium (2E)-3-[4-(2,6-dimethoxyphenyl)-5-(5-methylfuran-2-yl)-4H-1,2,4-triazol-3-yl]prop-2-enoate] | 52
